{"source": "paper PMC10641814", "about": "(Journal of Medicinal Chemistry, 2023)", "key": {"α2AR": {"target": "T1, α2AR (Homo sapiens, UniProt P08913)", "T1 sequence (P08913 1-465)": "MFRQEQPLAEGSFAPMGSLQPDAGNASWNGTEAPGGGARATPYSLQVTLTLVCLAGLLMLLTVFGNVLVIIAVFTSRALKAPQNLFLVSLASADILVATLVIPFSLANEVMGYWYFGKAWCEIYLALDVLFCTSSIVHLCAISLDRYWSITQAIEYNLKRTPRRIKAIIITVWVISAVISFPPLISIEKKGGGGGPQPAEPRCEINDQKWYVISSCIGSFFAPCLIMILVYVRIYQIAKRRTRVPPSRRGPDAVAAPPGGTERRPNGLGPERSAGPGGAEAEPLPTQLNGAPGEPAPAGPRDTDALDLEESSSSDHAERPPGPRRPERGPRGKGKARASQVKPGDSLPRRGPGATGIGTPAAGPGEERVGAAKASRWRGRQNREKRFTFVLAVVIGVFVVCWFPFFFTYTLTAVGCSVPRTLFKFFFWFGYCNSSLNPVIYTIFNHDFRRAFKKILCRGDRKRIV", "assay": "Adrenergic α2AR binding ([3H]-RX821002), Eurofins", "conditions": "read-out: adrenergic alfa2A % inhibition at 1 microM", "source_text": "(§1) The results were expressed as the %\n(§2) www.eurofinsdiscovery.com."}, "5-HT3R": {"target": "T2, 5-HT3R (Cavia porcellus, UniProt O70212)", "T2 construct": "from tissue; host or cells: guinea pig ileum", "T2 sequence (O70212 20-490)": "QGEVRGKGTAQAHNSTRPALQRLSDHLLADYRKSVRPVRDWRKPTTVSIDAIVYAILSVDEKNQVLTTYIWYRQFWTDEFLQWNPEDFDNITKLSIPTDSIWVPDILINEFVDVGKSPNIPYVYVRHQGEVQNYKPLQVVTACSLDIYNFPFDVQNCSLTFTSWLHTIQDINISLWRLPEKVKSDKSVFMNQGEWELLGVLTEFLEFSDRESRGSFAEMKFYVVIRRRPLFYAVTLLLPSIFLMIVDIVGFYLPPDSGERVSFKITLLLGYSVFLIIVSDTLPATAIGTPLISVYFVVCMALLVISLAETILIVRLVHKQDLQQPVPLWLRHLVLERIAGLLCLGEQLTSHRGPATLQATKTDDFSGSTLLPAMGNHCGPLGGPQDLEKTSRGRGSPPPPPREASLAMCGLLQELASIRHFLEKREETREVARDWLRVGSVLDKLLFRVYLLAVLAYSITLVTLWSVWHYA", "assay": "Ex vivo guinea pig ileum contractility, serotonin-induced", "conditions": "15 min incubation"}, "5-HT2BR": {"target": "5-HT2BR (Homo sapiens, UniProt P41595)", "sequence (P41595 whole entry)": "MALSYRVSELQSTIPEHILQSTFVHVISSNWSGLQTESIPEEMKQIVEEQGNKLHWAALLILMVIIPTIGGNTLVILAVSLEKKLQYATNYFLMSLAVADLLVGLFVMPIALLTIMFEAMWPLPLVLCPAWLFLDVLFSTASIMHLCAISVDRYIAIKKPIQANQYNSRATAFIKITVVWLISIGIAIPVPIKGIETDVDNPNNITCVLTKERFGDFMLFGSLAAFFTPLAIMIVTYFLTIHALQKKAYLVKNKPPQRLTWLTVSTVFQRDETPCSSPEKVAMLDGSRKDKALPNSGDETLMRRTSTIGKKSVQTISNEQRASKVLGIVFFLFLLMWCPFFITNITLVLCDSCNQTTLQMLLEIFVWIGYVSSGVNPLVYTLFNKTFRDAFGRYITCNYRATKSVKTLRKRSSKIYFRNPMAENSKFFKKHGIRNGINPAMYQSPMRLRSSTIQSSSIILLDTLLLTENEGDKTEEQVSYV", "assay": "5-HT2BR binding ([3H]-mesulergine), Eurofins", "source_text": "as §1, §2"}, "human 5-HT7b": {"target": "T3, human 5-HT7b (Homo sapiens, UniProt P34969)", "T3 construct": "expressed in transfected cells", "T3 sequence (P34969 1-432 limits assumed)": "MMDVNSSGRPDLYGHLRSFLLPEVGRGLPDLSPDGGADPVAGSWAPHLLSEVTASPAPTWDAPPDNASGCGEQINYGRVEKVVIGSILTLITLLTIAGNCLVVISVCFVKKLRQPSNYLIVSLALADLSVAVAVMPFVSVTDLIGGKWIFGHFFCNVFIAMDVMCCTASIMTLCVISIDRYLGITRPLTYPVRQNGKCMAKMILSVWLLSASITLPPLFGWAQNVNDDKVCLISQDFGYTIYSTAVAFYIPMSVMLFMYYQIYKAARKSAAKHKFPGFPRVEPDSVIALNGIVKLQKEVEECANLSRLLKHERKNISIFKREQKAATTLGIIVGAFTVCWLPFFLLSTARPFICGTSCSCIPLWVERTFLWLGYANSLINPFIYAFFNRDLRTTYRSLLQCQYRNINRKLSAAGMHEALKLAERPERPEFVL", "assay": "5-HT7R binding ([3H]-5-CT), HEK293", "conditions": "read-out: serotonin 5-HT7 % inhibition at 1 microM", "experimental": "3. Selectivity screen of PZ-1922\nFor membrane preparation,\nEDTA and 1 mM dithiothreitol.\nThe composition of the assay buffers was\nreader (PerkinElmer, USA).\nas §1, §2"}, "[1]": {"assay": "Chemical stability (hydrolysis, oxidation)", "conditions": "acidic and basic hydrolysis (0.5 M HCl and 0.5 M NaOH at 60 °C) and oxidizing conditions (10% H2O2 at room temperature)"}, "[2]": {"tested_on": "hippocampus of rats injected with oAβ25–35", "assay": "Western blot of hippocampal AD biomarkers in oAβ25–35-injected rats", "assay_type": "in vivo, rat", "conditions": "oAβ25–35 icv", "experimental": "As previously detailed,[37],[64] to induce the acute model of AD (oAβ25–35 model), rats were divided into three groups. […] The animals were anesthetized with an intraperitoneal (ip) injection of a mixture of ketamine and xylazine (80 and 10 mg/kg b.w., respectively). Scrambled peptide and oAβ25–35 were injected directly into the lateral ventricles at a rate of 2 μL/min using a David-Kopf stereotaxic apparatus (coordinates of injection: AP −1 mm, L ±1.5 mm, DV −3.5 mm).\nOn day 14, animals were subjected to a behavioral memory test (T-maze) and sacrificed on day 15 by decapitation.\n2—A preventive approach: This treatment was started at the same time as the induction of amyloid toxicity and consisted of implanting ip, and during the same anesthetic procedure necessary for the icv injection of oAβ25–35, an osmotic pump (Alzet-EML2, Charles-River, France) which continuously delivered the molecules for 1 week at the dose of 3 mg/kg/day. On day 7, animals were submitted to a behavioral memory test (T-maze) and sacrificed on day 8 by decapitation.\nAt the time of sacrifice, all hippocampi were dissected out, weighed, and rapidly frozen in liquid nitrogen for Western blot (WB) analysis.\nWestern blot analyses were performed on the whole hippocampus as previously described.[37] All antibodies used are detailed in Table S3. Briefly, after sacrifice, hippocampi were microdissected, weighed, immediately frozen in liquid nitrogen, and stored at −20 °C. Tissues were sonicated (VibraCell; Sonics & Materials, USA) in a lysis buffer[37] and centrifuged (4 °C). Supernatants were collected, and the protein concentration was measured using a bicinchoninic Acid (BCA) assay (ThermoFisher Scientific, France). […] The membranes were incubated overnight (4 °C) with the primary antibody, washed, and then incubated for 2 h with the appropriate horseradish peroxidase-conjugated secondary antibody. […] The intensity of the immunoreactive signals was quantified using Image-J software (NIH, Bethesda, […], USA). β-Tubulin (β-Tub) was used as a loading control for all experiments."}, "h5-HT3R": {"target": "T4, h5-HT3R (Homo sapiens, UniProt P46098)", "T4 construct": "expressed in transfected cells; host or cells: CHO", "T4 sequence (P46098 24-478)": "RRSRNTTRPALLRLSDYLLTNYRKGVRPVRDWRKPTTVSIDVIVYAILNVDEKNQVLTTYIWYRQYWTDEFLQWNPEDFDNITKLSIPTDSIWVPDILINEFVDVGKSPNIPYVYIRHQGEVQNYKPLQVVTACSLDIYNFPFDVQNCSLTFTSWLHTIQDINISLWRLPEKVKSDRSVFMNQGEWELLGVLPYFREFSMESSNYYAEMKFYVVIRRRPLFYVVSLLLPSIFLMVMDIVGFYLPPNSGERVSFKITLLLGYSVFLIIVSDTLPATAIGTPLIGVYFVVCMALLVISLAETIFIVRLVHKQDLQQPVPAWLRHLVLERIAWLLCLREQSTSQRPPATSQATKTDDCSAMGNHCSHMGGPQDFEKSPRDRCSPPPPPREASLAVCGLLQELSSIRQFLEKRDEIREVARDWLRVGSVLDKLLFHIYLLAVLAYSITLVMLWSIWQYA", "assay": "5-HT3R radioligand binding ([3H]-BRL 43694) in CHO cells"}, "[3]": {"conditions": "1.5 mg/kg ip twice a day for 7 days"}, "[4]": {"conditions": "3 mg/kg/day osmotic pump 1 week"}, "[5]": {"conditions": "curative and preventive approach"}}, "data": [{"smiles": "Cl.Clc1cccc(Cn2ccc3c(N4CCNCC4)nc4ccccc4c32)c1", "note": "[PZ-1922, 1-(3-Chlorobenzyl)-4-(piperazin-1-yl)-1H-pyrrolo[3,2-c]quinoline Hydrochloride]", "values": [{"measurement": "inhibition at 1 µM", "setting": "α2AR", "value": 22, "unit": "%"}, {"measurement": "pD2' antagonism at 5-HT3R", "setting": "5-HT3R", "value": 7.32}, {"measurement": "pD2' antagonism at 5-HT3R", "setting": "5-HT3R; listed as 16 (PZ1922), 15 min", "value": "7,32"}, {"measurement": "effect on 5-HT2BR (cardiac safety, valvulopathy)", "setting": "5-HT2BR; binding, 1 μM", "value": "lack of effect"}, {"measurement": "inhibition at 1 µM", "setting": "5-HT2BR; read-out: serotonin 5-HT2B % inhibition at 1 microM", "value": 17, "unit": "%"}, {"measurement": "inhibition at 1 µM", "setting": "human 5-HT7b", "value": 2, "unit": "%"}, {"measurement": "chemical stability", "setting": "[1]", "value": "chemically stable"}, {"measurement": "hippocampal Caspase-3 and Pro-caspase-3 expression, curative strategy", "setting": "[2]; [3]", "value": "decreased expression of Caspase-3 and Pro-caspase-3"}, {"measurement": "hippocampal PSD-95 and SYN levels, curative treatment", "setting": "[2]; [3]", "value": "reversed PSD-95 and SYN levels"}, {"measurement": "hippocampal Caspase-3 and Pro-caspase-3 expression, preventive treatment", "setting": "[2]; [4]", "value": "prevented increased expression of Caspase-3 and Pro-caspase-3"}, {"measurement": "hippocampal PSD-95 and SYN levels, preventive treatment", "setting": "[2]; [4]", "value": "reversed PSD-95 and SYN levels"}, {"measurement": "hippocampal GFAP increase", "setting": "[2]; [5]", "value": "Neither PZ-1922 nor intepirdine impacted the GFAP increase"}, {"measurement": "hippocampal Iba1 level", "setting": "[2]; [5]", "value": "decreased the Iba1 level regardless of the applied approach"}, {"measurement": "solubility", "setting": "Solubility in water", "value": 325, "unit": "mg/mL"}, {"measurement": "Ki", "setting": "h5-HT3R; 0.5 nM [3H]-BRL 43694, CHO cells expressing h5-HT3R, two independent experiments", "value": 0.45, "unit": "nM"}, {"measurement": "inhibition at 1 µM", "setting": "h5-HT3R; read-out: inhibition of 5-HT3R binding in selectivity screen", "value": "> 50", "unit": "%"}]}]}
